Test results: patent US20240226170A9, “USE OF MBV FOR TREATING AUTOIMMUNE DISEASE” (University of Pittsburgh - Of the Commonwealth System of …, priority 2019, published 2024)

How the values were obtained:
[1] = tested on: antibody response to the KLH antigen; conditions: days 7, 14, and 21 post-immunization; MBV 1 mg/ml i.v. on Day 0, 3, 6; cyclophosphamide 200 mg/kg i.p. on Day 0
Protocol: The Keyhold Limpet Hemocyanin (KLH) rat model of immunosuppression and immunotoxicity was used to assess immunotoxicity of MBV delivered systemically. […] On Day 0, the cyclophosphamide treated animals received 200 mg/kg i.p. and the MBV treated animals received 1 mg/ml UBM MBV delivered intravenously on Day 0, 3, and 6. On Day 7, all groups besides the vehicle control were immunized with 0.4 mL of 1000 μg/ml reconstituted KLH in Freund's incomplete adjuvant i.p. On days 14, 21, and 28 (7, 14, and 21 days post-immunization), whole blood was collected from the lateral tail vein and serum was isolated for analysis of anti-KLH IgM and IgG. Anti-KLH IgM and IgG were assessed in the serum of all animals using ELISA.

[2] = tested on: bone remodeling and joint destruction in fore- and hindpaws; assay: MicroCT imaging of paws at day 100 (pristane-induced arthritis); assay type: in vivo, Sprague-Dawley rats; conditions: i.p. MTX, qualitative
Text: Micro-Computed Tomography (microCT) images were acquired of hindpaws after sacrifice at day 100 of the animals studied in Example 2.

[3] = tested on: Pristane-induced arthritis; assay: Pristane-induced arthritis in rats, 60-point arthritis score; assay type: in vivo; conditions: for disease severity (arthritis score) compared to Pristane+PBS: p<0.05
Protocol: The Pristane-induced arthritis model in rats has been established as a clinically-relevant animal model for studying rheumatoid arthritis (Tuncel et al. PLoS One. 2016; 11(5):e0155936). Pristane induced arthritis was induced in 8-week-old, female, Sprague-Dawley rats by an intradermal injection of 300 μL Pristane (2,6,10,14-tetramethypentadecane) at the dorsal side of the tail, 1 cm distal to the base on Day 0 of the study. […] A second dose of 300 μL pristane was administered intradermally, approximately 1 cm distally to the dorsal tail base on Day 4. Animals receiving Pristane were housed together in cages. Animals receiving Pristane were randomized into the following experimental groups: Pristane-only+PBS, Pristane+i.p. Methotrexate (MTX), Pristane+periarticular (p.a.) MBV, and intravenous (i.v.) MBV.
An arthritis score was determined on days 7, 10, 14, 17, 21, 28, and every week thereafter through an endpoint of 100 days for each animal. Photographs of each forepaw and hindpaw were taken as viewed from the volar and plantar perspectives, respectively. Qualitative arthritis severity was evaluated by two independent reviewers using a 60-point arthritis scoring criteria: 1 point was given for each inflamed knuckle or toe, and up to 5 points was assigned for an affected ankle (15 points per paw, 60 points per each rat). […] The Pristane+i.p. methotrexate animals received 0.1 mg/kg methotrexate in 1× sterile PBS (pH 7.4) delivered intra-peritoneally (i.p.) on days 7, 10, 14, 17, and 21. The Pristane+periarticular MBV animals received 25 μL of 500 μg/mL porcine-derived UBM MBV (1×10^11 particles/mL) delivered in the plantar and volar surfaces of hindpaws and forepaws, respectively. The intravenous MBV group received 100 μL of 500 μg/mL UBM MBV (1×10^11 particles/mL) delivered intravenously into the lateral tail vein of the animal. (FIG. 12A) Four animals in each group were assigned to a short-term study of 28 days and four animals were assigned to a 100 day study. Sample size was determined using previously published effect size of methotrexate with a predetermined alpha 0.05 and beta 0.80. Arthritis score was represented as mean+/−standard error of mean. Days 7-21 represent an n of 8 for each group and then days 28 and onward represent an n of 4 for each group. Differences in groups were analyzed using two-way analysis of variance with Tukey's post-hoc correction. Significance was determined prior to the study as p<0.05.

[4] = tested on: tibiotalar joint and adjacent synovium; assay: Histopathologic scoring of the tibiotalar joint at day 100 (pristane-induced arthritis); assay type: in vivo, Sprague-Dawley rats; conditions: i.p. MTX, not significant (p>0.05)
Text: Synovial inflammation, cartilage destruction, and proteoglycan loss are fundamental histopathologic changes that occur in RA disease progression. To determine the effect of MBV treatment on these histopathologic parameters, rat hind paws were collected at study termination for histopathologic imaging and analysis (day 100) from the animals from Example 2.
One hindpaw from each animal was used for histopathological analysis. Tissue specimens were fixed with 10% formalin in PBS, pH 7.4, decalcified using 5% formic acid, and embedded in paraffin wax. Sections were stained with hematoxylin and eosin (H&E) for examination by light microscopy for joint histology and pathology. […]
Inflammation and joint damage of the tibiotalar joint were investigated by using an adapted three-parameter scoring system. Inflammation was scored on a scale of 0-3 (with 0 representing no inflammation and 3 a severe inflamed joint) depending on the relative proportion of inflammatory cells in the synovial tissue. Cartilage destruction was scored on a scale of 0-3, with results ranging from the appearance of dead chondrocytes and empty lacunae to complete loss of articular cartilage. Loss of proteoglycans in cartilage was scored on a scale of 0-3, and here results ranged from fully stained cartilage by toluidine blue staining to complete loss of articular cartilage. […]

Compound	anti-KLH IgG levels compared to the Vehicle+KLH control [1]	anti-KLH IgM levels compared to the Vehicle+KLH control [1]	adverse bone remodeling by microCT, compared to the vehicle control [2]	peak disease score ([3]; acute phase (days 0-42), Pristane+i.p. MTX 0.1 mg/kg on days 7, 10, 14, 17, 21, peak at day 21, mean±SEM)	disease severity (arthritis score) compared to Pristane+PBS ([3]; acute phase, Pristane+i.p. MTX 0.1 mg/kg)	disease severity (arthritis score) compared to Pristane+PBS ([3]; acute phase, Pristane+i.p. MTX 0.1 mg/kg, listed as methotrexate)	disease severity (arthritis score) compared to Pristane+PBS ([3]; chronic phase, days 84-100, no treatment after day 28, Pristane+i.p. MTX)	disease severity (arthritis score) compared to Pristane+PBS ([3]; chronic phase, days 84-100, no treatment after day 28, Pristane+i.p. MTX, listed as methotrexate)	severity of cartilage damage compared to Pristane+PBS [4]	severity of proteoglycan loss compared to Pristane+PBS [4]
O=P1(N(CCCl)CCCl)NCCCO1 (stereo not shown) [Cyclophosphamide]	significantly reduces anti-KLH IgG levels	significantly reduces anti-KLH IgM levels	–	–	–	–	–	–	–	–
CN(Cc1cnc2nc(N)nc(N)c2n1)c1ccc(C(=O)N[C@@H](CCC(=O)O)C(=O)O)cc1 [MTX, methotrexate]	–	–	substantially prevented adverse bone remodeling	9.8±0.8	reduced acute disease severity at days 10, 14, 17, and 21	significantly reduces disease scoring	significant decrease in disease severity	significantly reduces disease scoring	reduced the severity of cartilage damage	reduced the severity of proteoglycan loss
